Results on 15 molecules are retold here after patent US6551790B2, “Process for glucuronidation screening” (PanVera LLC, priority 1998, dated 2003).

The target in data set [1] is T1, bacterial β-glucuronidase (Escherichia coli, UniProt P05804). The conditions noted are these: read-out: apparent Km value for cleavage by β-glucuronidase; linear conditions of protein concentration and incubation time; FIG. 1.
Data set [2] concerns the target T2, UGT2B7H(268) (Homo sapiens, UniProt P16662, Y268H).
T2 sequence (P16662 24-529 Y268H): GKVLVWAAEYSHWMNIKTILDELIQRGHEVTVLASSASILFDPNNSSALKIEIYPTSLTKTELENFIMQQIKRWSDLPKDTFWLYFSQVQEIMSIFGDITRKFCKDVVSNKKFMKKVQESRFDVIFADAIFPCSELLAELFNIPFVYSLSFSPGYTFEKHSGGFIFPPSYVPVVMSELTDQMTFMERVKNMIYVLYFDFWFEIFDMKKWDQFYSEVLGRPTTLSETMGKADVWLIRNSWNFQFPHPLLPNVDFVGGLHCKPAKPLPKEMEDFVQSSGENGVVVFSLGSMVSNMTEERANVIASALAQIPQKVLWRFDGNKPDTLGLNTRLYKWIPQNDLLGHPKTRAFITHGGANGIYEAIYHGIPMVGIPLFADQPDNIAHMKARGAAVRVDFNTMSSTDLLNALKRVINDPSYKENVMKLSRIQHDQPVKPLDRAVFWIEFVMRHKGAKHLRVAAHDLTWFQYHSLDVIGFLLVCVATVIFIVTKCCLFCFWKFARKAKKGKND

The target in data set [3] is T2, UGT2B7H(268). The data set can be described thus: Kinetics of glucuronidation, membrane preparations of HK293 cells stably expressing UGT2B7H(268).
The target in data set [4] is T3, UGT2B7Y(268) (Homo sapiens, UniProt P16662).
T3 sequence (P16662 24-529): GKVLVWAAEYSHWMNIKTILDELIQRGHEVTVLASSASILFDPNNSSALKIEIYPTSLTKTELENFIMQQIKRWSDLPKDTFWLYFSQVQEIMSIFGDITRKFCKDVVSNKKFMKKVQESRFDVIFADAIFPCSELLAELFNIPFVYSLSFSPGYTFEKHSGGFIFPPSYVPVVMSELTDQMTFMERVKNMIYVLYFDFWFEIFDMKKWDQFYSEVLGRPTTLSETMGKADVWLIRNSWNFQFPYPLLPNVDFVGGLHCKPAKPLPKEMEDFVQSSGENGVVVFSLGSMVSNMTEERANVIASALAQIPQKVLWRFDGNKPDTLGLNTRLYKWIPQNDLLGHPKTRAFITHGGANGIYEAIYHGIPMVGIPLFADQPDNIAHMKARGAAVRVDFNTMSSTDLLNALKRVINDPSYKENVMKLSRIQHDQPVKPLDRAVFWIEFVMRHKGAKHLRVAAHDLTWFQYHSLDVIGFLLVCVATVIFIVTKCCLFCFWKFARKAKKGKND

The target of data set [5] is T3, UGT2B7Y(268). As to the kind of experiment: Kinetics of glucuronidation, membrane preparations of HK293 cells stably expressing UGT2B7Y(268).
Data set [6] concerns the target T1, bacterial β-glucuronidase. The data set can be described thus: Inhibition of 4-methylumbelliferyl-β-D-glucuronide cleavage by β-D-glucuronides. Details: purchased Sigma, St. Louis Mo; G-7396. The format is biochemical. The conditions noted are these: for inhibition of 4-methylumbelliferyl-β-D-glucuronide cleavage (production of 4-methylumbelliferone): FIG. 2, varying glucuronide concentrations. From the text: FIG. 2 depicts the effect of varying concentrations of β-D-glucuronide on the ability of β-glucuronidase to cleave various substrates.
Tetrahydrocortisone 3-β-D-glucuronide was obtained from Molecular Probes, Eugene, Oreg. Recombinant control and UGT1A6 membrane preparations were generated and are commercially available from PanVera Corporation, Madison Wis. All other reagents were analytical grade or better and purchased from a variety of commercial sources.
In order to show the feasibility of developing a high throughput inhibition assay, we examined the potential of a variety of structurally dissimilar, commercially available β-D-glucuronides to act as inhibitors for the cleavage of 4-methylumbelliferyl-β-D-glucuronide. These β-D-glucuronides represent compounds that might potentially be formed by UGT activity e.g. phenol and steroid glucuronides.

For data set [7] the following is noted: cited from earlier work.
Data set [8] has as its target T4, UGT2B7 (Homo sapiens, UniProt P16662).
T4 sequence (P16662 24-529): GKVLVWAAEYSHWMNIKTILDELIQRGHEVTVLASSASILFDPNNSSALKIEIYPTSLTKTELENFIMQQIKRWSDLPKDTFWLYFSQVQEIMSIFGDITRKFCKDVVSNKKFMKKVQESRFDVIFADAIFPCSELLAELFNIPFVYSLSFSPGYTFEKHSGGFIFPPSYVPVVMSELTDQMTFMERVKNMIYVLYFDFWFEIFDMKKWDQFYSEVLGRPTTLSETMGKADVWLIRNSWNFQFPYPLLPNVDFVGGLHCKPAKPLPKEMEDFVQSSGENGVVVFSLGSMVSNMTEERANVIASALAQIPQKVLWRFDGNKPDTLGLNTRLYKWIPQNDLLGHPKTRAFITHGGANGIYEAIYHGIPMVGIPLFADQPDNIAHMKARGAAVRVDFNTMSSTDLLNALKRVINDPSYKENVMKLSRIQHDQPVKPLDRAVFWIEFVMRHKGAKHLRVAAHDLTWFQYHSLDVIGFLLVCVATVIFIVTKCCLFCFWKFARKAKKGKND
From the text:
Heterologous expression and characterization of full length UGT 2B7.
Stable UGT2B7 cell lines were established from embryonic human kidney cells (HK293 cells) and microsomal membrane fractions from these cells were used to assess the properties of the recombinant enzyme. […] The specificity of the purified UGT2B7 will be assessed by determining overall catalytic efficiency with each aglycone substrate, as reflected in a ratio of the two fundamental Michaelis kinetic parameters, Vmax/Km. Reaction rates will be determined over a range of substrate concentrations and nonlinear regression will be used to fit the UGT rate data to velocity versus substrate curves (Graph Pad, Prism). Vmax/Km values will be determined and compared with those determined with the enzyme isolated from HK293 cells (Table 1). […] This ratio will be determined for the purified enzyme using HPLC-based methods for separation and quantification of the two glucuronides.

In data set [9] the target is recombinant human UGT1A6 (Homo sapiens, UniProt P19224).
Substrate in data set [10]: CN1CC[C@]23c4c5ccc(O)c4O[C@H]2C(=O)CC[C@@]3(O)[C@H]1C5
The data set can be described thus: cells, lysate or membranes named.

Substrate in data set [11]: C=CCN1CC[C@]23c4c5ccc(O)c4O[C@H]2C(=O)CC[C@@]3(O)[C@H]1C5
As to the kind of experiment: cells, lysate or membranes named. To be noted: two values = two different passages of cultured cells.

Substrate in data set [12]: O=C1CC[C@@]2(O)[C@H]3Cc4ccc(O)c5c4[C@@]2(CCN3CC2CC2)[C@H]1O5
The data set can be described thus: cells, lysate or membranes named. The conditions noted are these: two values = two different passages of cultured cells.

Substrate in data set [13]: C=CCN1CC[C@]23c4c5ccc(O)c4O[C@H]2[C@@H](O)C=C[C@H]3[C@H]1C5
The data set can be described thus: cells, lysate or membranes named.

Broadly, the Km is the concentration of substrate that gives half-maximal velocity.

Entries after “also recorded” stand apart in the source; their conditions may differ. Like-named read-outs stand apart in the source and are kept apart here.

T1 sequence (P05804 whole entry): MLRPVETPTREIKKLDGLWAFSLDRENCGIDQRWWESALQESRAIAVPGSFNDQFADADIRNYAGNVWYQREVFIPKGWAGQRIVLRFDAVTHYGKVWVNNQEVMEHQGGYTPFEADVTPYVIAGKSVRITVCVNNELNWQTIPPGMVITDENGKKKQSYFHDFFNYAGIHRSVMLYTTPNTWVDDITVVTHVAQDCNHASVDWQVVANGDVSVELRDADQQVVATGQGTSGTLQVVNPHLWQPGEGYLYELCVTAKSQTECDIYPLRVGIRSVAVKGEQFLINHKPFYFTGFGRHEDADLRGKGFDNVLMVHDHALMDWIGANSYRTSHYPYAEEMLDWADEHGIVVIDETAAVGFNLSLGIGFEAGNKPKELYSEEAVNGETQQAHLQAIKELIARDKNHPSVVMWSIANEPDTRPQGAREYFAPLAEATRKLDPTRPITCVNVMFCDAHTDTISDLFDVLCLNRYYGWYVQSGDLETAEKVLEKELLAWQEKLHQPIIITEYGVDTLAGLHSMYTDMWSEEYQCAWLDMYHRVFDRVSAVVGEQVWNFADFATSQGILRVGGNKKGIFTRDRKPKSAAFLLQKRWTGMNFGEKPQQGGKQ
recombinant human UGT1A6, sequence (P19224 27-532): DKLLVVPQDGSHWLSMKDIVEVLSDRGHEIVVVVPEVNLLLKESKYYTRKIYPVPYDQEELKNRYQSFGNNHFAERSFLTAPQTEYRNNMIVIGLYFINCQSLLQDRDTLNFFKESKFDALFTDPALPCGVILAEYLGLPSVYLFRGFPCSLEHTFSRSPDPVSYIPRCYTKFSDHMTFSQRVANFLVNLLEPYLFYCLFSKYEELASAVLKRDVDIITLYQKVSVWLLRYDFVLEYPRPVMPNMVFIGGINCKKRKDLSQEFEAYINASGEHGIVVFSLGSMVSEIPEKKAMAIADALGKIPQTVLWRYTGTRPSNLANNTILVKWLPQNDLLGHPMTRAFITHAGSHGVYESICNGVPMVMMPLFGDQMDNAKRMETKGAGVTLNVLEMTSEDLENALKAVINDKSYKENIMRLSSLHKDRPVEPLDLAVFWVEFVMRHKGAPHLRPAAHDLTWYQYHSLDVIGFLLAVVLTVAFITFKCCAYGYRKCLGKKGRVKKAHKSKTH

Consider `Cc1cc(=O)oc2cc(O[C@@H]3O[C@H](C(=O)O)[C@@H](O)[C@H](O)[C@H]3O)ccc12` [4-methylumbelliferyl-β-D-glucuronide], for which the Km in data set [1] was approximately 56 µM.
On to `CC(C)NC[C@@H](O)COc1cccc2ccccc12` [R-propanolol], for which the “Efficiency Vmax/Km (x100)” value came to 192 in data set [2] and 53 in data set [4]. Further, the Vmax in data set [3] is recorded as 194, 86 pmol/min/mg protein; in [5] it was 96 pmol/min/mg protein. For the same molecule, the Km in data set [4] is 180 µM.
On to `CC(C)NC[C@H](O)COc1cccc2ccccc12` [S-propanolol], for which the “Efficiency Vmax/Km (x100)” value in [2] is 205; in [4], 38, 259. Further, the Km in data set [2] was 72 ± 19 µM. Besides, the Vmax in data set [3] is 148 ± 30 pmol/min/mg protein; in [5] it was 70, 140 pmol/min/mg protein.
`O=C(O)[C@H]1O[C@H](OP(=O)(O)OP(=O)(O)OC[C@H]2O[C@@H](n3ccc(=O)[nH]c3=O)[C@H](O)[C@@H]2O)[C@H](O)[C@@H](O)[C@@H]1O` [UDPGA, Uridine 5′-diphosphoglucuronic acid]: the “inhibition of 4-methylumbelliferyl-β-D-glucuronide cleavage (production of 4-methylumbelliferone)” value (“inhibition” below) in [6] was “not an effective competitor”.
Regarding `CN1CC[C@]23c4c5ccc(O[C@@H]6O[C@H](C(=O)O)[C@@H](O)[C@H](O)[C@H]6O)c4O[C@H]2[C@@H](O)C=C[C@H]3[C@H]1C5` [morphine-3-O-glucuronide], in data set [7] (human, in vivo), the analgesic effects result is recorded as “devoid of analgesic effects”; the “effect on the analgesic activity of morphine and morphine-6-O-glucuronide” value was “counteract”.
Regarding `CN1CC[C@]23c4c5ccc(O)c4O[C@H]2[C@@H](O[C@@H]2O[C@H](C(=O)O)[C@@H](O)[C@H](O)[C@H]2O)C=C[C@H]3[C@H]1C5` [morphine-6-O-glucuronide], the “effectiveness as an analgesic relative to the parent compound” value in data set [7] (clinical studies, versus morphine) was 2-3 times.
`CN1CC[C@]23c4c5ccc(O)c4O[C@H]2[C@@H](O)C=C[C@H]3[C@H]1C5` [morphine]: in [8], the “Glucuronidation activity towards opioids” value is “demonstrated”.
The same measure, in the same setting: the entry for `C=CCN1CC[C@]23c4c5ccc(O)c4O[C@H]2[C@@H](O)C=C[C@H]3[C@H]1C5` [nalorphine] is “demonstrated”.
Regarding `C=CCN1CC[C@]23c4c5ccc(O)c4O[C@H]2C(=O)CC[C@@]3(O)[C@H]1C5` [naloxone], the Vmax in data set [3] (UGT2B7H, two values = two different passages of cultured cells) stood at 4530 pmol/min/mg protein; in data set [5] (UGT2B7Y, two values = two different passages of cultured cells), 2550 pmol/min/mg protein. The “Glucuronidation activity towards opioids” value in data set [8] is listed as “demonstrated”.
Consider `O=C1CC[C@@]2(O)[C@H]3Cc4ccc(O)c5c4[C@@]2(CCN3CC2CC2)[C@H]1O5` [naltrexone], for which the Vmax in data set [5] is listed as 840, 1130 pmol/min/mg protein.
Turning to `Oc1cccc2ccccc12` [α-naphthol], the “4-methylumbelliferyl β-D-glucuronide cleavage slower with UGT1A6 assay compared to control” value in data set [9] worked out at 60%. The “non-specific interference of the aglycone with the cleavage assay” value in data set [6] (residues from 0 time point extractions, FIG. 3 panel A) is “does not interfere non-specifically”.
Turning to `O=C(O)[C@H]1O[C@@H](Oc2cccc3ccccc23)[C@H](O)[C@@H](O)[C@@H]1O` [α-naphthyl β-D-glucuronide], the “inhibition” value was “weakest; also recorded: weak competitor” in data set [6] and “weak competitive inhibitor” in [6] (listed as α-naphthol β-D-glucuronide).
Take `C[C@]12CC[C@@H]3c4ccc(O[C@@H]5O[C@H](C(=O)O)[C@@H](O)[C@H](O)[C@H]5O)cc4CC[C@H]3[C@@H]1CC[C@@H]2O` [β-estradiol-3-(β-D-glucuronide)]: the “inhibition” value is “strongest” in data set [6] and “More potent inhibitors” in [6] (listed as estradiol β-D-glucuronide).

B1: UGT2B7Y(268) (Homo sapiens) (protein)
chain: GKVLVWAAEYSHWMNIKTILDELIQRGHEVTVLASSASILFDPNNSSALKIEIYPTSLTKTELENFIMQQIKRWSDLPKDTFWLYFSQVQEIMSIFGDITRKFCKDVVSNKKFMKKVQESRFDVIFADAIFPCSELLAELFNIPFVYSLSFSPGYTFEKHSGGFIFPPSYVPVVMSELTDQMTFMERVKNMIYVLYFDFWFEIFDMKKWDQFYSEVLGRPTTLSETMGKADVWLIRNSWNFQFPYPLLPNVDFVGGLHCKPAKPLPKEMEDFVQSSGENGVVVFSLGSMVSNMTEERANVIASALAQIPQKVLWRFDGNKPDTLGLNTRLYKWIPQNDLLGHPKTRAFITHGGANGIYEAIYHGIPMVGIPLFADQPDNIAHMKARGAAVRVDFNTMSSTDLLNALKRVINDPSYKENVMKLSRIQHDQPVKPLDRAVFWIEFVMRHKGAKHLRVAAHDLTWFQYHSLDVIGFLLVCVATVIFIVTKCCLFCFWKFARKAKKGKND
Regarding B1, the Km in data set [10] was 1360, 900 μM; in data set [11] (other: UGT2B7Y) it was 50, 40 μM; in data set [12] (other: UGT2B7Y) it was 140, 180 μM; in [13], 77, 121 μM. Also, the Vmax in data set [10] is recorded as 5640, 6040 pmol/min/mg protein; in [11] (other: UGT2B7Y), 3750, 2550 pmol/min/mg protein; in data set [13] it was 2870, 3650 pmol/min/mg protein.

B2: UGT2B7H(268) (Homo sapiens; Y268H) (protein)
chain: GKVLVWAAEYSHWMNIKTILDELIQRGHEVTVLASSASILFDPNNSSALKIEIYPTSLTKTELENFIMQQIKRWSDLPKDTFWLYFSQVQEIMSIFGDITRKFCKDVVSNKKFMKKVQESRFDVIFADAIFPCSELLAELFNIPFVYSLSFSPGYTFEKHSGGFIFPPSYVPVVMSELTDQMTFMERVKNMIYVLYFDFWFEIFDMKKWDQFYSEVLGRPTTLSETMGKADVWLIRNSWNFQFPHPLLPNVDFVGGLHCKPAKPLPKEMEDFVQSSGENGVVVFSLGSMVSNMTEERANVIASALAQIPQKVLWRFDGNKPDTLGLNTRLYKWIPQNDLLGHPKTRAFITHGGANGIYEAIYHGIPMVGIPLFADQPDNIAHMKARGAAVRVDFNTMSSTDLLNALKRVINDPSYKENVMKLSRIQHDQPVKPLDRAVFWIEFVMRHKGAKHLRVAAHDLTWFQYHSLDVIGFLLVCVATVIFIVTKCCLFCFWKFARKAKKGKND
On to B2, for which the Michaelis constant (Km) in data set [10] was 540, 670 μM; in data set [11] (other: UGT2B7H) it was 41, 60 μM; in data set [12] (other: UGT2B7H), 63, 200 μM; in data set [13] it was 141, 171 μM. Moreover, the Vmax in data set [10] is recorded as 7510, 8570 pmol/min/mg protein; in data set [11] (other: UGT2B7H), 3810, 4530 pmol/min/mg protein; in [13], 3990, 4670 pmol/min/mg protein.
